In ChEMBL document CHEMBL4665828, “Glucosylpolyphenols as Inhibitors of Aβ-Induced Fyn Kinase Activation and Tau Phosphorylation: Synthesis, Membrane Permeability, and Exploratory Target Assessment within the Scope of Type 2 Diabetes and Alzheimer's Disease” (J Med Chem, 2020):
Activity calls are given as the source filed them. The calls are words filed in the database; no cut-off is given here.

How the values were obtained:
[1] = Octanol/water partition coefficient, log D of compound at pH 7.4 at 1 uM incubated for 2 hrs by LC-MS analysis; type: physicochemical
[2] = target: T1, Tyrosine-protein kinase Fyn (Homo sapiens, UniProt P06241); assay: Inhibition of basal Fyn activation in hiPSC neural progenitor cells assessed as reduction in pFyn levels in absence of amyloid beta at 10 uM by DAPI staining based immunofluorescence assay; details: induced pluripotent stem cell-derived neuron
Target sequence in this assay (P06241 whole entry): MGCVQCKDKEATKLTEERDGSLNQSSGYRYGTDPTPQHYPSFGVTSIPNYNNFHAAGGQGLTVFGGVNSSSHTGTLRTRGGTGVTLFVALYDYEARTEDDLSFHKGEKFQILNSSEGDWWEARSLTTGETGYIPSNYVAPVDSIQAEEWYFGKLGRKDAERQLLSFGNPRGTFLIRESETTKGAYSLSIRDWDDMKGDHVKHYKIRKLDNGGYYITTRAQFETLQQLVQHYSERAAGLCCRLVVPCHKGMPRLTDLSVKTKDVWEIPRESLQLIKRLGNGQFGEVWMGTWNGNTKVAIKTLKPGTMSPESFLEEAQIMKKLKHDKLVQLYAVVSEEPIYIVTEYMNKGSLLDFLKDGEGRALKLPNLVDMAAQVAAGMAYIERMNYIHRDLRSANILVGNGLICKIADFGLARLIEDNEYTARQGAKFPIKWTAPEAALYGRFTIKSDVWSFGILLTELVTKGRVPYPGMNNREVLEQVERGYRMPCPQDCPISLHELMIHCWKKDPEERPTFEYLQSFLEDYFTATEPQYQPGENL

[3] = Cytotoxicity against hiPSC neural cells assessed as reduction in cell viability at 10 uM incubated for 24 hrs by MTT assay; type: cell-based; details: human, induced pluripotent stem cell-derived neuron
[4] = target: Acetylcholinesterase (Electrophorus electricus) (UniProt O42275); assay: Inhibition of electric eel AChE at 100 uM using acetylthiocholine iodide as substrate by Ellman's colorimetric analysis relative to control
[5] = Membrane retention of compound at pH 7.4 incubated for 16 hrs by PAMPA assay; type: ADME; details: pH 7.4, 16 h
[6] = target: Cholinesterase (Equus caballus) (UniProt P81908); assay: Inhibition of equine serum BuChE at 100 uM using butyrylthiocholine iodide as substrate by Ellman's colorimetric analysis relative to control
[7] = Aggregation property of the compound in PBS buffer at 10 to 100 uM incubated for 2 hrs by UV/Vis double beam spectrophotometric method; type: physicochemical; details: dose 10-100 µM
[8] = Aggregation property of the compound in PBS buffer assessed as aggregate formation at 10 to 100 uM incubated for 2 hrs by light scattering spectrofluorimetric assay; type: physicochemical; details: dose 10-100 µM
[9] = target: T1, Tyrosine-protein kinase Fyn; assay: Inhibition of Fyn activation (unknown origin) by ADP-Glo kinase assay
Target sequence in this assay (P06241 2-537 limits assumed): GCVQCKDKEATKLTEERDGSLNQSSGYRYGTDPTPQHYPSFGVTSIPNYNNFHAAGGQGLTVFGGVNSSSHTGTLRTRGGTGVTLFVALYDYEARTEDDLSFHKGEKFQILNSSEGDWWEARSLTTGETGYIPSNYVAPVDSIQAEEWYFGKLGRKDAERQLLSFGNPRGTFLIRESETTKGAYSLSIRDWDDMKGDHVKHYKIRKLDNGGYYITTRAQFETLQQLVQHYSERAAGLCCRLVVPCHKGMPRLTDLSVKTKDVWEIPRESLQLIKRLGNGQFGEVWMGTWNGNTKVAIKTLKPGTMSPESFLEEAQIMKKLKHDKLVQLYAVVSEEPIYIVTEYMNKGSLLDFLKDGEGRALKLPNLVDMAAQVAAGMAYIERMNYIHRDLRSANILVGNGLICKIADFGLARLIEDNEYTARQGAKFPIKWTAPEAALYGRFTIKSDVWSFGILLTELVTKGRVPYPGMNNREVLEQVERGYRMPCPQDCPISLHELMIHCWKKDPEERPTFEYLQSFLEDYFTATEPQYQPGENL

[10] = target: T1, Tyrosine-protein kinase Fyn; assay: Inhibition of amyloid beta-induced Fyn activation in hiPSC neural cells assessed as reduction in tau phosphorylation at Thr 181 residue at 10 uM measured after 4 days by DAPI/Alexa fluor 594 staining based immunocytochemistry analysis; details: Induced pluripotent stem cell-derived neuron, time 4.0 day
Target sequence in this assay (P06241 2-537 limits assumed): as above

[11] = target: Amyloid-beta precursor protein (Homo sapiens) (UniProt P05067); assay: Inhibition of human amyloid beta (1 to 42) self-induced aggregation at 50 uM by Thioflavin T based fluorometric assay
[12] = Cytotoxicity against hiPSC neural cells assessed as reduction in cell viability up to 100 uM incubated for 24 hrs by MTT assay; type: cell-based; details: human, induced pluripotent stem cell-derived neuron
[13] = pampa, pH 7.4, 16 h
[14] = target: T1, Tyrosine-protein kinase Fyn; assay: Inhibition of natural amyloid beta (1 to 42) -induced Fyn activation in hiPSC neural progenitor cells assessed as reduction in Fyn production at 10 uM preincubated fot 45 mins followed by amyloid beta addition and measured after 15 mins by DAPI/Alexa fluor 594 immunostaining based assay; details: Induced pluripotent stem cell-derived neuron, time 60.0 min
Target sequence in this assay (P06241 2-537 limits assumed): as above

Saccharomyces cerevisiae [15] = assay: Competitive inhibition of Saccharomyces cerevisiae alpha-glucosidase at 100 uM using p-nitrophenyl glycosides as substrate measured for 125 secs by spectrophotometry analysis relative to control; details: time 125.0 sec
[16] = Competitive inhibition of Saccharomyces cerevisiae alpha-glucosidase assessed as inhibition constant for inhibitor-enzyme complex formation using p-nitrophenyl glycosides as substrate measured for 125 secs by spectrophotometry analysis
[17] = Cytotoxicity against hiPSC neural cells assessed as reduction in cell viability up to 50 uM incubated for 24 hrs by MTT assay; type: cell-based; details: human, induced pluripotent stem cell-derived neuron
[18] = Uncompetitive inhibition of Saccharomyces cerevisiae alpha-glucosidase assessed as inhibition constant for inhibitor-substrate-enzyme complex formation using p-nitrophenyl glycosides as substrate measured for 125 secs by spectrophotometry analysis
Prunus dulcis = assay: Competitive inhibition of almond beta-glucosidase at 100 uM using p-nitrophenyl glycosides as substrate measured for 125 secs by spectrophotometry analysis relative to control; details: time 125.0 sec
Saccharomyces cerevisiae [19] = assay: Uncompetitive inhibition of Saccharomyces cerevisiae alpha-glucosidase at 100 uM using p-nitrophenyl glycosides as substrate measured for 125 secs by spectrophotometry analysis relative to control; details: time 125.0 sec
[20] = Competitive inhibition of almond beta-glucosidase using p-nitrophenyl glycosides as substrate measured for 125 secs by spectrophotometry analysis; set-up: species or system Prunus dulcis

Chain of Acetylcholinesterase (Electrophorus electricus) (O42275 24-633 limits assumed): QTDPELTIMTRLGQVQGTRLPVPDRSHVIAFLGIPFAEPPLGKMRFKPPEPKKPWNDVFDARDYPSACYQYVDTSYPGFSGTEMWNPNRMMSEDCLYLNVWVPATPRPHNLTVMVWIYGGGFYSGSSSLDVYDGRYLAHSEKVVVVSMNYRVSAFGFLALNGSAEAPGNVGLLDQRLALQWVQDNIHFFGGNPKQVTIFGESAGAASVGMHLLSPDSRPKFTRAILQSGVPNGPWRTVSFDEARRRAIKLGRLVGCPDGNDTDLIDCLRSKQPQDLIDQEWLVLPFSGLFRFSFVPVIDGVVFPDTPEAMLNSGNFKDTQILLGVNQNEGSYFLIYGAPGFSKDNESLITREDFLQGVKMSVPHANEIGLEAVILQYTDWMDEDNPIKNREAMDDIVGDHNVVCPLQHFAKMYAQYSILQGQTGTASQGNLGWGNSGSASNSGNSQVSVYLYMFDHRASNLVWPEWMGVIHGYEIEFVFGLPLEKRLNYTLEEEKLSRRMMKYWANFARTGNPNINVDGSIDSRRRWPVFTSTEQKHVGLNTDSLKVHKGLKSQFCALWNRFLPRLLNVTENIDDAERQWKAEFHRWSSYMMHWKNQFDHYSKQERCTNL
Chain of Amyloid-beta precursor protein (Homo sapiens) (P05067 whole entry): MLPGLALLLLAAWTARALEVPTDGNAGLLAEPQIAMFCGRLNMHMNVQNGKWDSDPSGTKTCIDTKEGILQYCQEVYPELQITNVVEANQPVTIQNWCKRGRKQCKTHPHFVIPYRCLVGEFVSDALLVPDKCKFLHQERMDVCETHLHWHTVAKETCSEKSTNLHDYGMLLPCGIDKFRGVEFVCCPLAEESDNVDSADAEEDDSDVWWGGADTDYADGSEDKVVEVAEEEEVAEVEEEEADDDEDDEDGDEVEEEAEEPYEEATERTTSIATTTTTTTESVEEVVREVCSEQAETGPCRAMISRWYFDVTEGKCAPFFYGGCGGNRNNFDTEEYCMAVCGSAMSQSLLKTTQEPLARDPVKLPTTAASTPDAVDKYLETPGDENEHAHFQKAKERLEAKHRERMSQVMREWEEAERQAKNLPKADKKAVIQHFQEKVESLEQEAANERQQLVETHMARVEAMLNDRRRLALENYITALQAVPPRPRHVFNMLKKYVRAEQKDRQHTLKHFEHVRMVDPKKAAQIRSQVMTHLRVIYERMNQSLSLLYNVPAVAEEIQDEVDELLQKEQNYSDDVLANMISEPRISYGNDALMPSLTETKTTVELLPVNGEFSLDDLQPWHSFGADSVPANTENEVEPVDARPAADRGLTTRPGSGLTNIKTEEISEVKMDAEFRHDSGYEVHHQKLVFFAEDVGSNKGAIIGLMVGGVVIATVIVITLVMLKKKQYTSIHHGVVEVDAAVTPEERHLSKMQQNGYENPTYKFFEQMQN
Chain of Cholinesterase (Equus caballus) (P81908 whole entry): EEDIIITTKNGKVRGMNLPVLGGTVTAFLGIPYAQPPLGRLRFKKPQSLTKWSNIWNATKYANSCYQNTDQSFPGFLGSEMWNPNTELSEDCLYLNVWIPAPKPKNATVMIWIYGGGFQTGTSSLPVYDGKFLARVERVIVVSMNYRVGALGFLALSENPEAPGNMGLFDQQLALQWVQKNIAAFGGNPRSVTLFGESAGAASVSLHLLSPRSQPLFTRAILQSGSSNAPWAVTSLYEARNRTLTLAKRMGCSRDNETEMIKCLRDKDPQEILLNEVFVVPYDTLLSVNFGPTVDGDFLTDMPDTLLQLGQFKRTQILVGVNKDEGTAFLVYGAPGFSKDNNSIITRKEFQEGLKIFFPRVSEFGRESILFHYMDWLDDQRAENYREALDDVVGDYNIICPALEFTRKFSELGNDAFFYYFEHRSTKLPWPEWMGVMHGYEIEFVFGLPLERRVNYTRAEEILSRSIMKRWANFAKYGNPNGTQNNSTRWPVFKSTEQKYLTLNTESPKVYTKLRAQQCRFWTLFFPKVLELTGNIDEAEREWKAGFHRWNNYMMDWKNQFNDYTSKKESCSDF

For `COC[C@H]1O[C@@H](c2cc(OC(=O)c3ccccc3)ccc2O)[C@H](OC)[C@@H](OC)[C@@H]1OC`, the logD at 2 h, 1 µM [1] was 3.2, the “inhibition (INH)” value [2] was “Not Active” and the Activity [3] was “Non-Toxic”. The inhibition [4] was 14%, the Drug uptake [5] was 80% and the inhibition [6] was 12%.

For `COC[C@H]1O[C@@H](c2cc(O)ccc2O)[C@H](OC)[C@@H](OC)[C@@H]1OC`, the Activity [7] was “Not Active”, the “inhibition (INH)” value [2] was “Not Active” and the Activity [8] was “Not Active”. For the same compound, the inhibition [9] was “Active”, the inhibition [10] was “Active” and the Activity [3] was “Non-Toxic”. For the same compound, the inhibition [4] was “inactive”, the inhibition [11] was “inactive” and the inhibition [6] was 21%.

In the case of `O=C(Cc1ccccc1)c1c(O)cc(O)c([C@@H]2O[C@H](CO)[C@@H](O)[C@H](O)[C@H]2O)c1O`, the inhibition [4] is reported as “inactive” and the inhibition [6] is reported as 17%.

For `O=C(Oc1ccc(O[C@H]2O[C@H](CO)[C@@H](O)[C@H](O)[C@H]2O)cc1)c1ccccc1`, the logD at 2 h, 1 µM [1] was 1, the “inhibition (INH)” value [2] was “Not Active” and the Activity [12] was “Non-Toxic”. The inhibition [10] was “Active”, the Activity [3] was “Non-Toxic” and the inhibition [4] was “inactive”. The logPeff [13] was “Not Active” and the inhibition [6] was 10%.

In the case of `CC(=O)c1c(O)cc(O)c([C@@H]2O[C@H](CO)[C@@H](O)[C@H](O)[C@H]2O)c1O`, the Activity [7] is reported as “Not Active”, the inhibition [14] is reported as “Active” and the “inhibition (INH)” value [2] is reported as “Not Active”. The Activity [8] was “Not Active”, the Activity [12] was “Non-Toxic” and the inhibition [10] was “Active”. The Activity [3] was “Non-Toxic”, the inhibition [4] was “inactive” and the logPeff [13] was “Bld”. The inhibition [6] was 15%.

With `O=C(Oc1ccccc1O[C@H]1O[C@H](CO)[C@@H](O)[C@H](O)[C@H]1O)c1ccccc1` the Activity [7] was “Not Active”, the logD at 2 h, 1 µM [1] was 0.1 and the “inhibition (INH)” value [2] was “Not Active”. For the same compound, the Activity [8] was “Not Active”, the inhibition (Saccharomyces cerevisiae [15]) was 74% and the inhibition [10] was “inactive”. The Ki [16] was 39 µM, the Activity [3] was “Non-Toxic” and the inhibition [4] was 10%. For the same compound, the inhibition [11] was “inactive” and the inhibition [6] was 17%.

With `COC[C@H]1O[C@@H](c2c(O)cc(O)c(C(C)=O)c2O)[C@H](OC)[C@@H](OC)[C@@H]1OC` the Activity [7] was “Not Active”, the inhibition [14] was “Active” and the logD at 2 h, 1 µM [1] was 2.3. For the same compound, the “inhibition (INH)” value [2] was “Not Active”, the Activity [17] was “Non-Toxic” and the Activity [8] was “Not Active”. For the same compound, the inhibition [9] was “inactive”, the inhibition [10] was “Active” and the Activity [3] was “Non-Toxic”. For the same compound, the inhibition [4] was “inactive”, the inhibition [11] was “inactive” and the inhibition [6] was 16%.

With `COC[C@H]1O[C@@H](c2c(O)ccc3ccccc23)[C@H](OC)[C@@H](OC)[C@@H]1OC` the logD at 2 h, 1 µM [1] was 2.7, the “inhibition (INH)” value [2] was “Not Active” and the Activity [3] was “Non-Toxic”. For the same compound, the inhibition [4] was “inactive” and the inhibition [6] was 23%.

With `O=C(Cc1ccccc1)Oc1cc(O)cc(O)c1` the inhibition [11] was “inactive”.

In the case of `COC[C@H]1O[C@@H](c2c(O)cc(O)cc2O)[C@H](OC)[C@@H](OC)[C@@H]1OC`, the Activity [7] is reported as “Not Active”, the inhibition [14] is reported as “Active” and the logD at 2 h, 1 µM [1] is reported as 1.6. For the same compound, the “inhibition (INH)” value [2] was “Not Active”, the Activity [8] was “Not Active” and the inhibition [9] was “Active”. For the same compound, the inhibition [10] was “inactive”, the Activity [3] was “Non-Toxic” and the inhibition [4] was “inactive”. It also gave an inhibition [6] of 10%.

With `O=c1c(-c2ccc(O)cc2)coc2cc(O)cc(O)c12` [GENISTEIN] the inhibition [14] was “Active”, the Ki [18] was 12 µM and the logD at 2 h, 1 µM [1] was 3.3. The inhibition (Prunus dulcis) was 44%, the inhibition [10] was “Active” and the Activity [3] was “Non-Toxic”. The inhibition (Saccharomyces cerevisiae [19]) was 84%, the inhibition [4] was 12% and the Ki [20] was 66 µM. For the same compound, the inhibition [6] was 41%.
